Reference: patent US20230277503A1, “COMPOSITIONS AND METHODS TO REDUCE PATHOGENESIS” (priority 2017, published 2023)
Entries after “also recorded” stand apart in the source; their conditions may differ. Where two headings read alike, the source gives them in different places. Marks after values point to notes of the source that are not given here.

How the values were obtained:
[1] = test system: human microvascular endothelial cells (HMEC); test: HMEC spheroid vascular-like tubule outgrowth; assay type: cell-based; details: matrigel with VEGF; serotonin 50 nM, R-DOI 100 nM, TCB2 500 nM
Method: HMEC cells were cultured in specially coated U-shaped bottom 96 well plates in order to form tissue-like 3 dimension spheroids. Spheroids were subsequently implanted into wells that contained matrigel basement membranes supplemented with vascular endothelial growth factor (VEGF) or starved (Starvation control-no VEGF). Culture media was treated with either serotonin (50 nM), (R-DOI (100 nM) or TCB2 (500 nM) outgrowth from the spheroids of vascular-like structures was monitored microscopically.

[2] = test system: HSV-1 RE; test: Murine model of HSV-1 (RE) chronic herpetic keratitis; assay type: in vivo, BALB/c mice; details: for signs of disease, including stromal opacity and corneal neovascularization: acute herpetic keratitis stage; for weight loss associated with HSV-1 ocular infection: day 5 to 11 post infection; for ocular histology (H&E, central cornea): day 15 post infection; for # Deceased / # Eyes showing signs of disease / Clinically clear eyes: day 15 post-infection, topical drops 4x per day for 8 days, (R)-DOI 500 μM; for stromal opacity score: following day 8 post infection; for clinical scores (slit lamp score, corneal opacity, neovascularization): up to 15 DPI, versus control BSS
Text: (§1) 16 BALB/c mice, which can respond with a TH2 biased immune response, were randomly sorted into 3 treatment arms: 1) Ophthalmic Balanced Saline Solution diluted 1:1 in PBS (BSS+PBS) treated (6 mice); 2) DOI treated (XTPFDOI) (5 mice); 3) 1.0% TFT (TFT+PBS) (5 mice). Animals were anesthetized with […]:ketamine and both eyes were scarified in a cross hatch pattern using a curved needle. Immediately following ocular scarification, eyes were inoculated with a 3 microliter drop containing 10,000 plaque forming units (PFU) of Herpes Simplex Virus type 1 (HSV-1) RE strain. The next morning following infection animals were treated with the respective treatment as assigned within their treatment arm. Treatments were applied topically to the eye in a 4 microliter drop. Drops were applied 4× daily from 9 am to 5:30 pm starting immediately following clinical scoring. Treatments were applied for the first 8 days post infection and then stopped on day 8. Clinical scoring was done using a slit lamp biomicroscope magnified at 16× on the days indicated by a single individual masked to the drug treatment parameters. Slit lamp biomicroscopy also included fluorescein exclusion labeling of the corneal surface following scoring of all clinical parameters. Each eye was scored independently. Clinically clear eyes were scored as such if no apparent signs of disease were present in any clinical parameter during the chronic phase.
At day 15 post infection, a stage that will be during chronic immune-associated disease with no virus present, animals were euthanized and the eyes were removed for histology. Random representative eyes were prepared by taking sections through the central cornea and processed by H&E histology for visualization. Sections were examined microscopically and photographed across the central cornea.
BALB/c eyes were scarified and infected with HSV-1 (RE), an HSV-1 strain that causes herpetic keratitis in 100% of ocular infections^31. Starting 24 hours post-infection, topical drops were applied in a masked fashion 4× per day for 8 days. Individual clinical parameters were monitored and scored in a masked fashion for 15 days.
BALB/c eyes were scarified and infected with 10,000 PFU per eye of HSV-1 RE, an HSV-1 strain that causes herpetic keratitis in 100% of ocular infections.
Referring to FIGS. 37-42, for example, individual clinical parameters were monitored and scored in a masked fashion for 15 days post infection. Parameters included weight, death, epiphora, blepharitis, corneal epithelium, corneal neovascularization, stromal opacity, scleral inflammation and fluorescently visualized slitlamp biomicroscopy.
24 hours post infection, topical drops were applied in a masked fashion 4× per day at 4 ul per drop to the surface of the eye. Topical drops consisted of 1% Trifluorthymidine (1% TFT; Viroptic), Ophthalmic Balanced Salt Solution (BSS), or (R)-DOI in Ophthalmic BSS.
as §1, with “preferentially” for “can”, “(BSS)” for “diluted 1:1 in PBS (BSS+PBS)”, “((R)-DOI)” for “(XTPFDOI)”, “TFT” for “TFT (TFT+PBS)”, “Slit lamp biomicroscopy also included fluorescein exclusion labeling of the corneal surface following scoring of all clinical parameters. Each eye was scored independently. Clinically clear eyes were scored as such if no apparent signs of disease were present in any clinical parameter during the chronic phase.” left out

[3] = test system: human microvascular endothelial cells; test: Endothelial tubule formation assay; assay type: cell-based; details: geltrex basement membrane
Method: Referring to FIG. 35 for example, to assess the ability of 5-HT2A agonists and antagonists to inhibit capillary-like endothelial tube formation, human microvascular endothelial cells were seeded into geltrex basement membrane and overlaid with endothelial growth medium containing vascular endothelial growth factor (VEGF) and the indicated drugs. Both 5HT2A agonists and antagonists disrupted formation of endothelial tube networks, the formation of branching, complex capillary structures, and interconnectivity of capillary tubes.

[4] = test system: VEGF-mediated neovascularization from aortic rings; test: Aortic ring neovascularization assay; assay type: cell-based, mice; details: for blood vessel sprouting, branching and formation from aortic rings: VEGF-containing endothelial growth medium, matrigel
Method: Referring to FIG. 34 for example, the aortas from sacrificed mice are removed, cleaned, and dissected into 1 mm tubule sections. These aortic rings are implanted into matrigel basement membrane and incubated in endothelial cell growth medium containing vascular endothelial growth factor. Aortic rings are continuously incubated in the presence of 5HT2A receptor agonists and antagonists at the indicated concentrations and examined by microscopy daily. Extensive sprouting, branching and networking of new blood vessels can be observed in control aortic rings, where multiple images needed to be stitched together in order to capture the extensive blood vessel network formed.

[5] = test system: HSV-1; assay type: cell-based, mice; details: 500 nM; for HSV-1 reactivation and amount of infectious virus shed from latent neurons (PFU/ml/TG): relative to mock/buffer control, 10 days
[6] = test system: TNFα-induced inflammatory gene and protein expression; details: intraperitoneal, doses up to 30-fold below the CNS behaviorally-active threshold dose; aorta and intestine; cited from earlier work
[7] = test system: asthma in a rat model; test: Rat model of asthma (OVA); assay type: in vivo; details: OVA (ovalbumin) allergen
Text: OVA is ovalbumin, a frequently used allergen that induces robust, allergic pulmonary inflammation in laboratory rodents.

Row | Compound | vascular-like tubular growth from HMEC spheroids [1] | signs of disease, including stromal opacity and corneal neovascularization [2] | weight loss associated with HSV-1 ocular infection [2] | # Deceased [2] | # Eyes showing signs of disease [2] | Clinically clear eyes [2] | stromal opacity score [2] | clinical scores (slit lamp score, corneal opacity, neovascularization) [2] | VEGF-mediated human vascular endothelium tubule formation [3] | blood vessel sprouting, branching and formation from aortic rings [4] | other results
1 | NCCc1c[nH]c2ccc(O)cc12 [serotonin, 5-hydroxytryptamine] | induces vascularization-like replication and tubule growth | – | – | – | – | – | – | – | – | – | –
2 | O=c1[nH]c(=O)n([C@H]2C[C@H](O)[C@@H](CO)O2)cc1C(F)(F)F [1% TFT, trifluorothymidine, reference compound] | – | reduced signs of disease | experienced weight loss associated with HSV-1 ocular infections | 0/5 | 7/10 | 0/10 | markedly increased opacity score | initially controlled ocular disease development relative to control BSS treated eyes | – | – | ocular histology (H&E, central cornea) ([2]; listed as TFT): immune cell infiltration, thickening of the stroma, neovascularization, and disruption of the corneal epithelial layers
3 | COc1cc(CCN)c(OC)cc1I [2CI, 2-(4-Iodo-2,5-dimethoxyphenyl)ethan-1-amine] | abrogated formation of vascular-like tubular growth | – | – | – | – | – | – | – | – | – | –
4 | O=C(c1ccc(F)cc1)C1CCN(CCCCc2ccccc2)CC1 [4F4PP, reference compound] | – | – | – | – | – | – | – | – | inhibit VEGF-mediated human vascular endothelium tubule formation | inhibit VEGF-mediated neovascularization from aortic rings | –
5 | COc1cc(C[C@@H](C)N)c(OC)cc1I [(R)-DOI, (R)-1-(2,5-dimethoxy-4-iodophenyl)-2-aminopropane] | abrogated formation of vascular-like tubular growth | reduced signs of disease | do not experience significant weight loss | 0/5 | 3/10* | 6/10 | increase in stromal opacity was muted | reduced slit lamp scores, corneal opacity and neovascularization | inhibit VEGF-mediated human vascular endothelium tubule formation | inhibit VEGF-mediated neovascularization from aortic rings; also recorded: inhibited blood vessel sprouting, branching and formation | delay in reactivation of HSV-1 from TGs ([5]; relative to mock): 2 fold; HSV-1 reactivation and amount of infectious virus shed from latent neurons (PFU/ml/TG) [5]: inhibits HSV-1 reactivation from latent neurons; also recorded: significantly inhibited the number of reactivating TGs and the amount of infectious virus shed from neurons; HSV-1 reactivation and amount of infectious virus shed from latent neurons (PFU/ml/TG) ([5]; listed as DOI): significantly inhibited the degree of reactivation and amount of infectious virus shed from latent neurons; TNFα-induced inflammatory gene and protein expression [6]: potently inhibits TNFα-induced inflammatory gene and protein expression; disease relative to control BSS treatment ([2]; after day 8, chronic immuno-pathology): significantly reduced disease relative to control BSS treatment; eyes exhibiting complete clinical resolution ([2]; by day 15, drops topically applied for 7 days post infection): 60%; corneal neovascularization ([2]; compared to control BSS or TFT treated eyes): decreased development of corneal neovascularization; ocular histology (H&E, central cornea) [2]: markedly less disease presentation in all eyes examined; also recorded: most similar to uninfected eyes; ocular histology (H&E, central cornea) ([2]; listed as DOI): normal ocular morphology with an absence of clinical signs of ocular disease; clinical scores (slit lamp score, corneal opacity, neovascularization) ([2]; listed as DOI): suppressed development of all clinically scored parameters; concentration at which the inhibitory effects began to no longer be as effective ([4]; neovascularization, sprouting, branching, networking): 10 nM
6 | CCN(CC)C(=O)[C@@H]1C=C2c3cccc4[nH]cc(c34)C[C@H]2N(C)C1 [LSD] | – | – | – | – | – | – | – | – | – | – | symptoms of asthma [7]: can prevent symptoms of asthma
